{"source": "patent US11332438B2", "about": "“Creatine prodrugs, compositions and methods of use thereof” (Ultragenyx Pharmaceutical Inc., priority 2017, dated 2022)", "key": {"[1]": {"conditions": "rcm bond, DCM, 50.0 °C"}, "[2]": {"conditions": "rcm bond, Grubbs II, 50.0 °C"}, "[3]": {"assay": "Chemical stability in simulated intestinal fluid (SIF) without pancreatin", "type": "physicochemical", "conditions": "Table 2A, 50 μM prodrug", "description": "Chemical stability of creatine prodrugs in phosphate buffered saline (PBS), simulated intestinal fluid (SIF) without pancreatin, simulated gastric fluid (SGF) without pepsin were determined by LC-UV, LC-CAD, LC-UV-CAD or LC-MS/MS as appropriate. Creatine prodrugs of the present disclosure (50 μM) were incubated at 37° C. according to described protocols and prodrug levels were compared between t=0, t=15, t=60, and t=120 mins by peak area ratio to determine the percentage remained at t=120 mins (2 h).\nProtocol for PBS, SIF and SGF stability for screening:\nProdrugs (50 μM) were incubated in PBS, FaSSIF (Biorelevant) or FaSSGF (Biorelevant) at 37° C."}, "[4]": {"assay": "Chemical stability in simulated gastric fluid (SGF) without pepsin", "type": "physicochemical", "conditions": "Table 2A, 50 μM prodrug", "how_it_was_run": "(§1)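 Incubations used 50 μM compound at 37 °C in phosphate buffered saline, fasted simulated intestinal fluid without pancreatin, or fasted simulated gastric fluid without pepsin.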"}, "[5]": {"assay": "In vivo IV dosing in CrT KO mice: prodrug, d3-Cr and d3-Crn in brain (Table 5)", "description": "A creatine prodrug is administered as an intravenous bolus injection to groups of three to six adult male CD1 mice at an appropriate creatine prodrug dose equivalent per kg body weight. Animals are conscious at the time of the experiment. Blood samples (0.3 mL) are obtained via a jugular vein cannula at intervals over 8 hours following IV dosing. Blood is processed into plasma, then the plasmais immediately frozen at −80° C. until analyzed by LC-MS/MS. Samples may also be taken form the CSF or other appropriate biological fluid. Brains were collected and flash frozen immediately in liquid nitrogen. Brains were homogenized in 100 mM KPI buffer with a cocktail of anti-proteases on the same day as the sample preparation required for LC-MS/MS analysis.\nSeveral prodrugs with either free COOH group and ester linkage and macrocycles were selected for IV dosing in animal study to assess PK and d3-Cr release in brain in vivo. Prodrugs were IV dosed in CrT KO mice at 10, 15, or 25 mg/kg in animal studies. Mouse brain homogenates (MBH) were prepared from brains collected from mice after dosing. Levels of prodrug, d3-Cr and d3-Crn were quantified in brain and expressed in brain concentration (for macrocycle prodrugs) or AUC (for linear prodrugs) over time. Very few prodrugs were detected in MBH."}, "[6]": {"assay": "Chemical stability in phosphate buffered saline (PBS)", "type": "physicochemical", "conditions": "Table 2A, 50 μM prodrug", "how_it_was_run": "as §1"}, "[7]": {"assay": "Liver microsome stability, mouse", "type": "in vitro ADME", "conditions": "liver microsomes, pH 7.4, Table 2A, read-out: Microsome Stability Mouse t1/2", "how_it_was_run": "(§2)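 Test compound incubated with mouse or human liver microsomes and NADPH in 0.1 M potassium phosphate, 1.0 mM EDTA, pH 7.4, with a 60-min no-NADPH control. Samples quenched with ACN containing internal standard at 0, 5, 10, 20, 30 and 60 min, then analysed by LC/MS.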"}, "[8]": {"assay": "Plasma stability, mouse plasma", "type": "in vitro ADME", "conditions": "Table 2A, 37 °C, read-out: Plasma Stability Mouse t1/2", "how_it_was_run": "(§3)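 Test article, 1 µM final (from 10% DMSO/water), incubated at 37 °C in plasma adjusted to pH 7.4 if needed; samples at 0, 2, 5, 15 and 30 min quenched with ice-cold 80% acetonitrile. Remaining compound by LC-MS/MS; half-life in minutes calculated.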"}, "[9]": {"assay": "Plasma stability, human plasma", "type": "in vitro ADME", "conditions": "Table 2A, 37 °C, read-out: Plasma Stability Human t1/2", "how_it_was_run": "as §3"}, "[10]": {"assay": "Liver microsome stability, human", "type": "in vitro ADME", "conditions": "liver microsomes, pH 7.4, Table 2A, read-out: Microsome Stability Human t1/2", "how_it_was_run": "as §2"}}, "note": "Where two headings read alike, the source gives them in different places.", "data": [{"compound": "CC1CC=CCCCCCCCC(=O)NC(=NC(=O)OC(C)(C)C)N(C)CC(=O)O1", "note": "(stereo not drawn)", "values": [{"measurement": "ring closure, isolated yield", "setting": "[1]; from [2H]C([2H])([2H])N(CC(=O)OC(C)CC=C)C(=NC(=O)OC(C)(C)C)NC(=O)CCCCCCCC=C, 18-membered ring, Grubbs II, 2.0 h, 2 steps", "result": 53, "unit": "%"}]}, {"compound": "CN1CC(=O)OC(C)(C)CCCC=CCCC(=O)NC1=NC(=O)OCc1ccccc1", "values": [{"measurement": "ring closure, isolated yield", "setting": "[1]; from [2H]C([2H])([2H])N(CC(=O)OC(C)(C)CCCC=C)C(=NC(=O)OCc1ccccc1)NC(=O)CCC=C, 15-membered ring, Grubbs II", "result": 50, "unit": "%"}]}, {"compound": "[2H]C([2H])([2H])N(C(N)=NC(=O)OCc1ccccc1)N(CC(=O)O)C(=N)NC(=O)CCCCCC=C", "values": [{"measurement": "ring closure, isolated yield", "setting": "[1]; the molecule shown is the open-chain precursor, 17-membered ring, Grubbs II (10 mol%), 2.4 mM", "result": 33, "unit": "%"}]}, {"compound": "[2H]C([2H])([2H])N1CC(=O)OC(C)(C)CC=CCCCCCCCC(=O)N/C1=N/C(=O)OCc1ccccc1", "values": [{"measurement": "ring closure, yield of all isomers", "setting": "[2]; from [2H]C([2H])([2H])N(CC(=O)OC(C)(C)CC=C)/C(=N\\C(=O)OCc1ccccc1)NC(=O)CCCCCCCC=C, dichloromethane, 2.0 mM", "result": 79, "unit": "%"}]}, {"compound": "[2H]C([2H])([2H])N1CC(=O)OC(C)C=CCCCCCCCC(=O)N/C1=N/C(=O)OC(C)(C)C", "note": "(stereo not drawn)", "values": [{"measurement": "ring closure, yield of all isomers", "setting": "[2]; from [2H]C([2H])([2H])N(CC(=O)OC(C)C=C)/C(=N\\C(=O)OC(C)(C)C)NC(=O)CCCCCCCC=C, DCM, 2.28 mM", "result": 77, "unit": "%"}]}, {"compound": "[2H]C([2H])([2H])N1CC(=O)OC(CC)/C=C/CCCCCCCC(=O)N/C1=N/C(=O)OC(C)(C)C", "note": "(stereo not drawn)", "values": [{"measurement": "ring closure, yield of all isomers", "setting": "[2]; from [2H]C([2H])([2H])N(CC(=O)OC(C=C)CC)/C(=N\\C(=O)OC(C)(C)C)NC(=O)CCCCCCCC=C, DCM, 2.82 mM", "result": 86, "unit": "%"}]}, {"compound": "[2H]C([2H])([2H])N1CC(=O)OC2(CC/C=C/CCCCCC(=O)NC1=NC(=O)OCc1ccccc1)CCOC2", "note": "(stereo not drawn)", "values": [{"measurement": "ring closure, yield of all isomers", "setting": "[2]; from [2H]C([2H])([2H])N(CC(=O)OC1(CCC=C)CCOC1)C(=NC(=O)OCc1ccccc1)NC(=O)CCCCCC=C, dichloromethane, 1.95 mM", "result": 78, "unit": "%"}]}, {"compound": "[2H]C([2H])([2H])N1CC(=O)OC2(CCC=CCCCCCC(=O)N/C1=N/C(=O)OCc1ccccc1)CCC2", "values": [{"measurement": "ring closure, yield of all isomers", "setting": "[2]; from [2H]C([2H])([2H])N(CC(=O)OC1(CCC=C)CCC1)/C(=N\\C(=O)OCc1ccccc1)NC(=O)CCCCCC=C, dichloromethane, 2.4 mM", "result": 33, "unit": "%"}]}, {"compound": "[2H]C([2H])([2H])N1CC(=O)OC2(CCC=CCCCCCC(=O)NC1=NC(=O)OCc1ccccc1)CCCC2", "values": [{"measurement": "ring closure, yield of all isomers", "setting": "[2]; from [2H]C([2H])([2H])N(CC(=O)OC1(CCC=C)CCCC1)C(=NC(=O)OCc1ccccc1)NC(=O)CCCCCC=C, dichloromethane, 1.95 mM", "result": 84, "unit": "%"}]}, {"compound": "[2H]C([2H])([2H])N1CC(=O)OCCCC/C=C\\CCCCCCCC(=O)N/C1=N/C(=O)OC(C)(C)C", "values": [{"measurement": "ring closure, isolated yield", "setting": "[1]; from [2H]C([2H])([2H])N(CC(=O)OCCCCC=C)C(=NC(=O)OC(C)(C)C)NC(=O)CCCCCCCC=C, 20-membered ring, Grubbs II", "result": 90, "unit": "%"}]}, {"compound": "[2H]C([2H])([2H])N1CC(=O)OCCCCCCCC/C=C/CCCCCCCC(=O)N/C1=N/C(=O)OCc1ccccc1", "values": [{"measurement": "ring closure, isolated yield", "setting": "[1]; from [2H]C([2H])([2H])N(CC(=O)OCCCCCCCCC=C)/C(=N\\C(=O)OCc1ccccc1)NC(=O)CCCCCCCC=C, 24-membered ring, Grubbs II (10 mol%), 1.79 mM, 2.0 h", "result": 78, "unit": "%"}]}, {"compound": "[2H]C([2H])([2H])N1CC(=O)OCCCCCCCC/C=C/CCCCCCCC(=O)NC1=NC(=O)OCc1ccccc1", "values": [{"measurement": "ring closure, yield of all isomers", "setting": "[2]; from [2H]C([2H])([2H])N(CC(=O)OCCCCCCCCC=C)C(=NC(=O)OCc1ccccc1)NC(=O)CCCCCCCC=C, dichloromethane, 1.79 mM", "result": 78, "unit": "%"}]}, {"compound": "[2H]C([2H])([2H])N(CC(=O)[O-])C(=N)NC(=O)CCCCCCCCCC.[Na+]", "note": "[Compound 4]", "values": [{"measurement": "Chemical Stability SIF, no enzyme % T0 at 2 hours at 37 °C.", "setting": "[3]", "result": 61, "unit": "%"}, {"measurement": "Chemical Stability SGF, no enzyme % T0 at 2 hours at 37 °C.", "setting": "[4]", "result": 94, "unit": "%"}, {"measurement": "crossing of BBB (in words)", "setting": "[5]; CrT KO mice, IV dosing", "result": "did not seem to cross BBB"}, {"measurement": "AUClast d3-Cr in the brain", "setting": "[5]; IV 10 mg/kg, CrT KO mouse brain, BQL d3-Cr = 13.7 ng/mL", "result": "BQL"}, {"measurement": "AUClast d3-Crn in the brain", "setting": "[5]; IV 10 mg/kg, CrT KO mouse brain, BQL d3-Crn = 1.5 ng/mL", "result": "BQL"}, {"measurement": "AUClast prodrug in the brain", "setting": "[5]; IV 10 mg/kg, CrT KO mouse brain, BQL prodrug = 41.2 ng/mL", "result": "BQL"}, {"measurement": "Chemical Stability PBS % T0 at 2 hours at 37 °C.", "setting": "[6]", "result": 69, "unit": "%"}]}, {"compound": "[2H]C([2H])([2H])N(CC(=O)[O-])C(=N)NC(=O)CCC/C=C\\C/C=C\\C/C=C\\C/C=C\\CCCCC.[Na+]", "note": "[Compound 22]", "values": [{"measurement": "half-life at 10 μM", "setting": "[7]", "result": 0.15, "unit": "h"}, {"measurement": "Chemical Stability SIF, no enzyme % T0 at 2 hours at 37 °C.", "setting": "[3]", "result": 86, "unit": "%"}, {"measurement": "half-life", "setting": "[8]", "result": "> 3", "unit": "h"}, {"measurement": "Chemical Stability SGF, no enzyme % T0 at 2 hours at 37 °C.", "setting": "[4]", "result": 30, "unit": "%"}, {"measurement": "half-life", "setting": "[9]", "result": 2.17, "unit": "h"}, {"measurement": "Chemical Stability PBS % T0 at 2 hours at 37 °C.", "setting": "[6]", "result": 35, "unit": "%"}, {"measurement": "half-life at 10 μM", "setting": "[10]", "result": 0.4, "unit": "h"}]}, {"compound": "[2H]C([2H])([2H])N(CC(=O)[O-])C(=N)NC(=O)CCCCC/C=C\\CCCCCCCCCC.[Li+]", "note": "[Compound 24]", "values": [{"measurement": "half-life at 10 μM", "setting": "[7]", "result": 1.37, "unit": "h"}, {"measurement": "Chemical Stability SIF, no enzyme % T0 at 2 hours at 37 °C.", "setting": "[3]", "result": 74, "unit": "%"}, {"measurement": "half-life", "setting": "[8]", "result": "> 3", "unit": "h"}, {"measurement": "Chemical Stability SGF, no enzyme % T0 at 2 hours at 37 °C.", "setting": "[4]", "result": 39, "unit": "%"}, {"measurement": "half-life", "setting": "[9]", "result": "> 3", "unit": "h"}, {"measurement": "Chemical Stability PBS % T0 at 2 hours at 37 °C.", "setting": "[6]", "result": 150, "unit": "%"}, {"measurement": "half-life at 10 μM", "setting": "[10]", "result": 1.3, "unit": "h"}]}, {"compound": "[2H]C([2H])([2H])N(CC(=O)OCC)C(=N)NC(=O)CCCCCCCCCCCC", "note": "[Compound 46]", "values": [{"measurement": "Chemical Stability SIF, no enzyme % T0 at 2 hours at 37 °C.", "setting": "[3]", "result": 45, "unit": "%"}, {"measurement": "half-life", "setting": "[8]", "result": "< 0.0833", "unit": "h"}, {"measurement": "Chemical Stability SGF, no enzyme % T0 at 2 hours at 37 °C.", "setting": "[4]", "result": 111, "unit": "%"}, {"measurement": "half-life", "setting": "[9]", "result": "< 0.0833", "unit": "h"}, {"measurement": "Chemical Stability PBS % T0 at 2 hours at 37 °C.", "setting": "[6]", "result": 0, "unit": "%"}]}, {"compound": "(Z)-tert-butyl-((E)-17-ethyl-4-trideuteriomethyl-2,7-dioxo-1-oxa-4,6-diazacycloheptadec-15-en-5-ylidene) carbamate", "values": [{"measurement": "ring closure, isolated yield", "setting": "[1]; 17-membered ring, Grubbs II (20 mol%), 2.82 mM", "result": 86, "unit": "%"}]}]}
